Assay results published in the NIST ThermoML archive (doi:10.1021/je7003758).
Numbers after ± are expanded uncertainties.

Experiment: xn = mol fraction of the nth substance listed
Conditions: 298.15 K, Liquid

ClCCCCCCCl [1,6-dichlorohexane] + CN1CCCC1=O
mass density [kg/m3]
Conditions | x2 = 0.1182 | x2 = 0.2016 | x2 = 0.3079 | x2 = 0.4114 | x2 = 0.5049 | x2 = 0.6008 | x2 = 0.7023 | x2 = 0.8009 | x2 = 0.8972
100 kPa | 1060.7 ± 1.2 | 1058.4 ± 1.1 | 1055.4 ± 1 | 1052 ± 0.8 | 1049 ± 0.7 | 1045.6 ± 0.7 | 1041.6 ± 0.6 | 1037.5 ± 0.5 | 1033.1 ± 0.5
500 kPa | 1060.9 ± 1.2 | 1058.7 ± 1.1 | 1055.6 ± 1 | 1052.3 ± 0.8 | 1049.2 ± 0.7 | 1045.8 ± 0.7 | 1041.8 ± 0.6 | 1037.7 ± 0.5 | 1033.4 ± 0.5
1000 kPa | 1061.3 ± 1.2 | 1059.1 ± 1.1 | 1056 ± 1 | 1052.6 ± 0.9 | 1049.5 ± 0.8 | 1046.1 ± 0.7 | 1042.1 ± 0.6 | 1038 ± 0.5 | 1033.6 ± 0.5
1500 kPa | 1061.6 ± 1.2 | 1059.4 ± 1.1 | 1056.3 ± 1 | 1052.9 ± 0.9 | 1049.8 ± 0.8 | 1046.4 ± 0.7 | 1042.4 ± 0.6 | 1038.3 ± 0.5 | 1033.9 ± 0.5
2000 kPa | 1062 ± 1.2 | 1059.7 ± 1.1 | 1056.6 ± 1 | 1053.3 ± 0.9 | 1050.1 ± 0.8 | 1046.7 ± 0.7 | 1042.7 ± 0.6 | 1038.6 ± 0.5 | 1034.2 ± 0.5
2500 kPa | 1062.3 ± 1.2 | 1060 ± 1.1 | 1056.9 ± 1 | 1053.6 ± 0.9 | 1050.5 ± 0.8 | 1047 ± 0.7 | 1043 ± 0.6 | 1038.9 ± 0.5 | 1034.4 ± 0.5
3000 kPa | 1062.6 ± 1.3 | 1060.4 ± 1.1 | 1057.3 ± 1 | 1053.9 ± 0.9 | 1050.8 ± 0.8 | 1047.3 ± 0.7 | 1043.3 ± 0.6 | 1039.1 ± 0.5 | 1034.7 ± 0.5
3500 kPa | 1063 ± 1.3 | 1060.8 ± 1.2 | 1057.6 ± 1 | 1054.3 ± 0.9 | 1051.1 ± 0.8 | 1047.6 ± 0.7 | 1043.6 ± 0.6 | 1039.4 ± 0.6 | 1035 ± 0.5
4000 kPa | 1063.3 ± 1.3 | 1061.1 ± 1.2 | 1057.9 ± 1 | 1054.6 ± 0.9 | 1051.4 ± 0.8 | 1047.9 ± 0.7 | 1043.9 ± 0.6 | 1039.7 ± 0.6 | 1035.3 ± 0.5
4500 kPa | 1063.7 ± 1.3 | 1061.4 ± 1.2 | 1058.3 ± 1 | 1054.9 ± 0.9 | 1051.7 ± 0.8 | 1048.2 ± 0.7 | 1044.2 ± 0.6 | 1040 ± 0.6 | 1035.5 ± 0.5
5000 kPa | 1064 ± 1.3 | 1061.8 ± 1.2 | 1058.6 ± 1.1 | 1055.2 ± 0.9 | 1052 ± 0.8 | 1048.5 ± 0.7 | 1044.4 ± 0.7 | 1040.3 ± 0.6 | 1035.8 ± 0.5
5500 kPa | 1064.4 ± 1.3 | 1062.1 ± 1.2 | 1058.9 ± 1.1 | 1055.5 ± 0.9 | 1052.4 ± 0.8 | 1048.9 ± 0.7 | 1044.7 ± 0.7 | 1040.5 ± 0.6 | 1036.1 ± 0.5
5900 kPa | – | – | – | – | – | 1049.2 ± 0.8 | – | – | –
6000 kPa | 1064.7 ± 1.3 | 1062.4 ± 1.2 | 1059.4 ± 1.1 | 1055.8 ± 1 | 1052.7 ± 0.9 | – | 1045 ± 0.7 | 1040.8 ± 0.6 | 1036.4 ± 0.5
6500 kPa | 1065 ± 1.3 | 1062.8 ± 1.2 | 1059.6 ± 1.1 | 1056.1 ± 1 | 1053 ± 0.9 | 1049.4 ± 0.8 | 1045.3 ± 0.7 | 1041.1 ± 0.6 | 1036.6 ± 0.5
7000 kPa | 1065.4 ± 1.4 | 1063.1 ± 1.2 | 1059.9 ± 1.1 | 1056.5 ± 1 | 1053.3 ± 0.9 | 1049.7 ± 0.8 | 1045.6 ± 0.7 | 1041.4 ± 0.6 | 1036.9 ± 0.5
7500 kPa | 1065.7 ± 1.4 | 1063.5 ± 1.2 | 1060.2 ± 1.1 | – | 1053.6 ± 0.9 | 1050 ± 0.8 | 1045.9 ± 0.7 | 1041.7 ± 0.6 | 1037.2 ± 0.5
7600 kPa | – | – | – | 1056.7 ± 1 | – | – | – | – | –
8000 kPa | 1066.1 ± 1.4 | 1063.7 ± 1.3 | 1060.5 ± 1.1 | 1057.1 ± 1 | 1054 ± 0.9 | 1050.3 ± 0.8 | 1046.2 ± 0.7 | 1041.9 ± 0.6 | 1037.4 ± 0.6
8500 kPa | 1066.5 ± 1.4 | 1064 ± 1.3 | 1060.8 ± 1.1 | 1057.4 ± 1 | 1054.2 ± 0.9 | 1050.6 ± 0.8 | 1046.5 ± 0.7 | 1042.2 ± 0.6 | 1037.8 ± 0.6
8900 kPa | 1066.7 ± 1.4 | – | – | – | – | – | – | – | –
9000 kPa | – | 1064.4 ± 1.3 | 1061.2 ± 1.1 | 1057.7 ± 1 | 1054.5 ± 0.9 | 1050.9 ± 0.8 | 1046.8 ± 0.7 | 1042.5 ± 0.6 | 1038 ± 0.6
9500 kPa | 1067 ± 1.4 | 1064.8 ± 1.3 | 1061.5 ± 1.2 | 1058 ± 1 | 1054.9 ± 0.9 | 1051.2 ± 0.8 | 1047.1 ± 0.7 | 1042.8 ± 0.6 | 1038.2 ± 0.6
10000 kPa | 1067.4 ± 1.4 | 1065.2 ± 1.3 | 1061.9 ± 1.2 | 1058.4 ± 1 | 1055.2 ± 0.9 | 1051.6 ± 0.8 | 1047.4 ± 0.7 | 1043.1 ± 0.7 | 1038.6 ± 0.6
10500 kPa | 1067.8 ± 1.4 | 1065.4 ± 1.3 | 1062.2 ± 1.2 | 1058.7 ± 1 | 1055.6 ± 0.9 | 1051.9 ± 0.8 | 1047.7 ± 0.7 | 1043.4 ± 0.7 | 1038.8 ± 0.6
11000 kPa | 1068.1 ± 1.5 | 1065.8 ± 1.3 | 1062.5 ± 1.2 | 1059 ± 1.1 | 1055.9 ± 1 | 1052.2 ± 0.9 | 1048 ± 0.8 | 1043.6 ± 0.7 | 1039.1 ± 0.6
11500 kPa | 1068.4 ± 1.5 | 1066.1 ± 1.3 | 1062.8 ± 1.2 | 1059.3 ± 1.1 | 1056.2 ± 1 | 1052.4 ± 0.9 | 1048.2 ± 0.8 | 1044 ± 0.7 | 1039.3 ± 0.6
12000 kPa | 1068.8 ± 1.5 | 1066.4 ± 1.4 | 1063.1 ± 1.2 | 1059.6 ± 1.1 | 1056.4 ± 1 | 1052.7 ± 0.9 | 1048.5 ± 0.8 | 1044.2 ± 0.7 | 1039.6 ± 0.6
12500 kPa | 1069.1 ± 1.5 | 1066.7 ± 1.4 | 1063.5 ± 1.2 | 1059.9 ± 1.1 | 1056.7 ± 1 | 1053 ± 0.9 | 1048.8 ± 0.8 | 1044.5 ± 0.7 | 1039.8 ± 0.6
13000 kPa | 1069.4 ± 1.5 | 1067 ± 1.4 | 1063.8 ± 1.2 | 1060.3 ± 1.1 | 1057 ± 1 | 1053.3 ± 0.9 | 1049.2 ± 0.8 | 1044.8 ± 0.7 | 1040.1 ± 0.6
13400 kPa | – | – | – | – | – | – | 1049.5 ± 0.8 | – | –
13500 kPa | 1069.7 ± 1.5 | 1067.4 ± 1.4 | 1064.1 ± 1.3 | 1060.6 ± 1.1 | 1057.3 ± 1 | 1053.6 ± 0.9 | – | 1045.1 ± 0.7 | 1040.4 ± 0.6
13900 kPa | – | – | – | – | 1057.6 ± 1 | – | – | – | –
14000 kPa | 1070 ± 1.5 | 1067.6 ± 1.4 | 1064.4 ± 1.3 | 1060.9 ± 1.1 | – | 1053.9 ± 0.9 | 1049.7 ± 0.8 | 1045.3 ± 0.7 | 1040.6 ± 0.6
14400 kPa | – | – | – | – | – | – | – | 1045.6 ± 0.7 | –
14500 kPa | 1070.4 ± 1.5 | 1068 ± 1.4 | 1064.7 ± 1.3 | 1061.2 ± 1.1 | 1057.9 ± 1 | 1054.2 ± 0.9 | 1050 ± 0.8 | – | 1041 ± 0.7
15000 kPa | 1070.7 ± 1.6 | 1068.3 ± 1.4 | 1065 ± 1.3 | 1061.5 ± 1.2 | 1058.2 ± 1 | 1054.5 ± 0.9 | 1050.3 ± 0.8 | 1045.9 ± 0.7 | 1041.2 ± 0.7
15400 kPa | – | – | – | 1061.8 ± 1.2 | – | – | – | – | –
15500 kPa | 1071 ± 1.6 | 1068.6 ± 1.5 | 1065.4 ± 1.3 | – | 1058.5 ± 1.1 | 1054.8 ± 0.9 | 1050.6 ± 0.8 | 1046.2 ± 0.8 | 1041.4 ± 0.7
16000 kPa | 1071.4 ± 1.6 | 1069 ± 1.5 | 1065.6 ± 1.3 | 1062 ± 1.2 | 1058.8 ± 1.1 | 1055.1 ± 1 | 1050.8 ± 0.9 | 1046.4 ± 0.8 | 1041.7 ± 0.7
16500 kPa | 1071.7 ± 1.6 | 1069.2 ± 1.5 | 1065.9 ± 1.3 | 1062.4 ± 1.2 | 1059.1 ± 1.1 | 1055.4 ± 1 | 1051 ± 0.9 | 1046.6 ± 0.8 | 1041.9 ± 0.7
16900 kPa | – | – | 1066.2 ± 1.3 | – | – | – | – | – | –
17000 kPa | 1072 ± 1.6 | 1069.6 ± 1.5 | – | 1062.7 ± 1.2 | 1059.4 ± 1.1 | 1055.6 ± 1 | 1051.3 ± 0.9 | 1046.9 ± 0.8 | 1042.2 ± 0.7
17500 kPa | 1072.3 ± 1.6 | 1069.8 ± 1.5 | 1066.5 ± 1.4 | – | 1059.7 ± 1.1 | 1055.9 ± 1 | 1051.6 ± 0.9 | 1047.2 ± 0.8 | 1042.5 ± 0.7
17600 kPa | – | – | – | 1063 ± 1.2 | – | – | – | – | –
17900 kPa | 1072.6 ± 1.6 | – | – | – | – | 1056.2 ± 1 | – | – | –
18000 kPa | – | 1070.2 ± 1.5 | 1066.7 ± 1.4 | 1063.3 ± 1.2 | 1059.9 ± 1.1 | – | 1051.8 ± 0.9 | 1047.5 ± 0.8 | 1042.7 ± 0.7
18400 kPa | – | – | – | – | – | – | – | 1047.6 ± 0.8 | –
18500 kPa | 1072.9 ± 1.7 | 1070.5 ± 1.5 | 1067.1 ± 1.4 | 1063.5 ± 1.2 | 1060.2 ± 1.1 | 1056.5 ± 1 | 1052.1 ± 0.9 | – | 1043 ± 0.7
19000 kPa | 1073.3 ± 1.7 | 1070.8 ± 1.5 | 1067.4 ± 1.4 | 1063.9 ± 1.3 | 1060.6 ± 1.1 | 1056.8 ± 1 | 1052.4 ± 0.9 | 1048 ± 0.8 | 1043.2 ± 0.7
19400 kPa | – | – | 1067.7 ± 1.4 | 1064.1 ± 1.3 | – | – | – | – | –
19500 kPa | 1073.6 ± 1.7 | 1071.1 ± 1.6 | – | – | 1060.9 ± 1.2 | 1057 ± 1 | 1052.8 ± 0.9 | 1048.2 ± 0.8 | 1043.5 ± 0.7
20000 kPa | 1073.9 ± 1.7 | 1071.4 ± 1.6 | 1068.2 ± 1.4 | – | 1061.2 ± 1.2 | 1057.5 ± 1.1 | 1053 ± 0.9 | 1048.7 ± 0.8 | 1043.8 ± 0.7
20100 kPa | – | – | – | 1064.5 ± 1.3 | – | – | – | – | –
